Tested on: CAFs
Test: Internalization studies in CAFs
Type: cell-based, human
Conditions: 37 °C
Method: For saturation studies, CAFs were incubated with increasing concentrations of the radiotracers (0.1–10 nM). For internalization studies, approximately 2.5 pmol of the radiotracers were added to CAFs followed by incubation for 15, 30, 60, 90, 120, 180 and 240 min for the ^68Ga-labeled or 30, 60, 120, 240 and 360 min for the ^177Lu-labeled radiotracers at 37 °C, 5% CO2. For the externalization studies, approximately 2.5 pmol of the ^177Lu-labeled radiotracers were added to CAFs followed by incubation for 2 h at 37 °C, 5% CO2. Afterward, the amount of the externalized activity from the CAFs was determined at 0, 10, 20, 30, 60, 120, 240, and 1440 min (Supplemental Data).
Saturation Binding Studies […]
for 0.5, 1, 2, 4 and 6 h at 37 °C, 5% CO2 for the 177Lu-labeled tracers. […] The radioactivity of the culture medium, the receptor bound, and the internal-ized fractions were measured in a γ-counter. […]
The radioactivity of the culture medium, the receptor bound , the internalized and the externalized fractions were measured in a γ -counter. The externalized fraction of radioactivity was ex-pressed as the percentage of the total internalized amount. […]

SMILES	Total cell associated uptake (% of total applied radioactivity) (4 h)	Total cell associated uptake (% of total applied radioactivity) (6 h)
N#C[C@@H]1CC(F)(F)CN1C(=O)CNC(=O)c1ccnc2ccc(OCCCCNc3c(NCCNC(=O)CN4CCN(CC(=O)[O-])CCN(CC(=O)[O-])CCN(CC(=O)[O-])CC4)c(=O)c3=O)cc12.[68Ga+3] [[^68Ga]Ga-DOTA.SA.FAPi]	21.9 ± 1.2%	–
N#C[C@@H]1CC(F)(F)CN1C(=O)CNC(=O)c1ccnc2ccc(OCCCCNc3c(NCCNC(=O)CN4CCN(CC(=O)[O-])CCN(CC(=O)[O-])CCN(CC(=O)[O-])CC4)c(=O)c3=O)cc12.[177Lu+3] [[^177Lu]Lu-DOTA.SA.FAPi]	–	21.1 ± 1.1%

From paper PMC11243320, “Tailoring Fibroblast-Activation Protein Targeting for Theranostics: A Comparative Preclinical Evaluation of the ^68Ga- and ^177Lu-Labeled Monomeric and Dimeric Fibroblast-Activation Protein Inhibitors DOTA.SA.FAPi and DOTAGA.(SA.FAPi)2” (Molecules, 2024)
